Experimental data as given in ChEMBL document CHEMBL1201862, “PubChem BioAssay data set” (2004).
Active and inactive are the calls of the source.

Legend:
[1] = luciferase reporter signal suppression in cells – H4 neuroglioma cells, luminescence, dose response (AID 1990); format: functional, cell-based
[2] = luciferase reporter signal reduction – luminescence, H4-C neuroglioblastoma cells, dose response (AID 2458); format: functional, cell-based;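 further: H4 neuroglioblastoma cells stably carrying a luciferase reporter gene fusion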
[3] = cells; format: functional, cell-based
[4] = Luminescence Cell-Based Dose Response HTS to Identify Inhibitors of 5'UTR Stem-Loop Driven Prion Protein mRNA Translation in H4 Neuroglioblastoma Cells. [Related pubchem assays: 1827 (Project Summary), 1813 (Primary HTS)]; format: functional
[5] = alpha-synuclein stem-loop luciferase translation blockers – H4 neuroglioma cells, luminescence, confirmation (AID 1988); format: functional, cell-based
[6] = Trypanosoma cruzi growth suppression in host cells – NIH3T3 host cells, beta-gal luminescence, confirmation (AID 2044); format: functional, cell-based;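 further: intracellular parasites grown in NIH/3T3 mouse fibroblasts as host cells; luminescent beta-galactosidase reporter signal from transgenic T. cruzi replicating inside host cells; inhibitors lower the luminescence signal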
[7] = NIH3T3 cell viability loss – ATP luminescence, mouse fibroblasts, counter-screen, dose response (AID 2010); format: functional, cell-based;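 further: cells exposed to compound for about 90 hours before reading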
[8] = alpha-synuclein stem-loop translation blockers – luminescence, H4 neuroglioblastoma cells, dose confirmation, confirmation (AID 2454); format: functional, cell-based;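 further: H4 neuroglioblastoma cells carrying an alpha-synuclein 5'UTR luciferase reporter; potency for inhibition of the luciferase signal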
[9] = HEK-293T viability loss after treatment – luminescence, T-cell screen hits, cytotoxicity control for TCR NF-kB inhibitor project, dose response (AID 489026); format: functional, cell-based;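 further: cells exposed to compound about 14 hours before the viability readout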
[10] = target: Lysosomal acid glucosylceramidase (Homo sapiens, UniProt P04062); assay: Dose response cell-based high throughput screening assay to identify enhancers of beta-glucosidase activity. [Related pubchem assays: 784 ]; format: functional
[11] = target: Eukaryotic translation initiation factor 4H (Homo sapiens, UniProt Q15056); assay: inhibitors of translation initiation factor eIF4H – SAR follow-up (AID 435011); format: functional
[12] = target: Polyadenylate-binding protein 1 (Homo sapiens, UniProt P11940); assay: PABP inhibition in translation initiation, SAR follow-up (AID 435018); format: functional
[13] = target: T1, Alkaline phosphatase, tissue-nonspecific isozyme (Homo sapiens, UniProt P05186)
T1 sequence (P05186 whole entry): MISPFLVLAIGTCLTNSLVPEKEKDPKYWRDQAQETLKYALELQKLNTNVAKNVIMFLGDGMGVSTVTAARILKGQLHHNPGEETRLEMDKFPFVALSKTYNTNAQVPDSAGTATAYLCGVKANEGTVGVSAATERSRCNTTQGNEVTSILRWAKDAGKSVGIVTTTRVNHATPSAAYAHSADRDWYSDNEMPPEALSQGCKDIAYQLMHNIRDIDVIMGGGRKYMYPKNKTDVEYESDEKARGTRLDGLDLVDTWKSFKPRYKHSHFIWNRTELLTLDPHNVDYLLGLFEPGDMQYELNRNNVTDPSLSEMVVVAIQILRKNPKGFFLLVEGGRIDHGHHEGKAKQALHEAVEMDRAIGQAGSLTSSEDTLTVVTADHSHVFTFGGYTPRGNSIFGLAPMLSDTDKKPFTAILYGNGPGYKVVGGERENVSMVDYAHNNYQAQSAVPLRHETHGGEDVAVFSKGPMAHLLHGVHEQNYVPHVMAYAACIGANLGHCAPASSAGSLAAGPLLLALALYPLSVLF

[14] = target: T2, RNA-binding protein pos-1 (Caenorhabditis elegans, UniProt G5EF15); assay: disruptors of C. elegans POS-1 RNA interaction – biochemical, fluorescence polarization, dose response (AID 1964);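 further: purified POS-1 fused to maltose binding protein made in E. coli; potency of compounds blocking POS-1 binding to fluorescent RNA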
T2 sequence (G5EF15 whole entry): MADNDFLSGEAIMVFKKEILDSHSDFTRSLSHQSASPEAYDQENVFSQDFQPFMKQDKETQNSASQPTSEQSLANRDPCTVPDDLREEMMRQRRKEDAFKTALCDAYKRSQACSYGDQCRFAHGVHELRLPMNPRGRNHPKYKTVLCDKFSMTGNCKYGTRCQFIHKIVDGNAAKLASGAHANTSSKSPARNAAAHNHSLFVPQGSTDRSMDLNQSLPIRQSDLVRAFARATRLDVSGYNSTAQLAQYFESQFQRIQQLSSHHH

[15] = target: T3, Long-chain-fatty-acid--AMP ligase FadD28 (Mycobacterium tuberculosis, UniProt P9WQ59); assay: Fluorescence polarization aasay to screen for inhibitors that compete for the binding of FadD28 to a bisubstrate Measured in Biochemical System Using Plate Reader - 2147-01_Inhibitor_Dose_CherryPick_Activity.; format: functional, Mycobacterium tuberculosis H37Rv
T3 sequence (P9WQ59 whole entry): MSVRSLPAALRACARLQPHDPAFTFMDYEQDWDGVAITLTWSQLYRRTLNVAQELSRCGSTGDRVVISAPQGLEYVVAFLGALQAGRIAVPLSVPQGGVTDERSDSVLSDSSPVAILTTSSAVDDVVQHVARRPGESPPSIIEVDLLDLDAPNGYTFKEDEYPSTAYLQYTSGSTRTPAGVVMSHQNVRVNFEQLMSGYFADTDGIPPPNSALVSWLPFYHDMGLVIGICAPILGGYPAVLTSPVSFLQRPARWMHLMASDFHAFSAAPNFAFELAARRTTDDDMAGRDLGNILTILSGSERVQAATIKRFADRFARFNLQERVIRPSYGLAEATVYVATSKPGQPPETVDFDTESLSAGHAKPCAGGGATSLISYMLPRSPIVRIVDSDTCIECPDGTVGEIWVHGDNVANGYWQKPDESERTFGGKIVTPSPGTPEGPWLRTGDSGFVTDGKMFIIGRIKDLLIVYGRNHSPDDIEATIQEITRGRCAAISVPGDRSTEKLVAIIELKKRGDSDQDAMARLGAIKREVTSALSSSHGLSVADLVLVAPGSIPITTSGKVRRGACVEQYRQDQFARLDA

[16] = cells
[17] = target: Neurotensin receptor type 1 (Homo sapiens, UniProt P30989); format: functional;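 further: Image-based confirmatory dose-response assay measuring agonist activity at NTR1; NTR1-expressing U2OS osteosarcoma cells imaged for beta-arrestin GFP spot formation; agonist potency where compounds increase beta-arrestin recruitment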
Sequence of Neurotensin receptor type 1 (P30989 whole entry): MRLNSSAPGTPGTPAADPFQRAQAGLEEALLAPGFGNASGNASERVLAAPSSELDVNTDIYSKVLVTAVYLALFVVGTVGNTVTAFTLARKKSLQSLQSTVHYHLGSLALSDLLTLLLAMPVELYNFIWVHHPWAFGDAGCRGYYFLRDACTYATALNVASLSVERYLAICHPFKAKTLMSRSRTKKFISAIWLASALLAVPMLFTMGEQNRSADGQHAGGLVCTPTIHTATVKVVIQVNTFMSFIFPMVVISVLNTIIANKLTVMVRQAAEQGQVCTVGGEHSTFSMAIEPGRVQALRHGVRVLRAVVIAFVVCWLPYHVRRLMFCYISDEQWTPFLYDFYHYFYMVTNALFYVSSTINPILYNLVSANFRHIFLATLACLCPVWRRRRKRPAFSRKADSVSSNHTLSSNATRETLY

Sequence of Lysosomal acid glucosylceramidase (P04062 whole entry): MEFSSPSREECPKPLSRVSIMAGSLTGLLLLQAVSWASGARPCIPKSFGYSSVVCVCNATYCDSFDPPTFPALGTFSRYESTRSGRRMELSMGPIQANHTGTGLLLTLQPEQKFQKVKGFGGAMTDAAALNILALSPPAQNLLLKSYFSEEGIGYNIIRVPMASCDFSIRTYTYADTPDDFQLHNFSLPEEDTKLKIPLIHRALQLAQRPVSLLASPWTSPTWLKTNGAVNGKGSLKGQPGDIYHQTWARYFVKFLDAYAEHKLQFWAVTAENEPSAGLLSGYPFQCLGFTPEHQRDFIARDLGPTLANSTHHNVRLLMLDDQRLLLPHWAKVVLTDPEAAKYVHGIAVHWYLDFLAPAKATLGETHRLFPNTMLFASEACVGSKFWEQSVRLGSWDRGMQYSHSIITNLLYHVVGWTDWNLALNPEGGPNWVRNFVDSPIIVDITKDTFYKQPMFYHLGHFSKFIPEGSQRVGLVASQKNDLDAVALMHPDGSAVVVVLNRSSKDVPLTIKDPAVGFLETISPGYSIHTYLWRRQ
Sequence of Polyadenylate-binding protein 1 (P11940 whole entry): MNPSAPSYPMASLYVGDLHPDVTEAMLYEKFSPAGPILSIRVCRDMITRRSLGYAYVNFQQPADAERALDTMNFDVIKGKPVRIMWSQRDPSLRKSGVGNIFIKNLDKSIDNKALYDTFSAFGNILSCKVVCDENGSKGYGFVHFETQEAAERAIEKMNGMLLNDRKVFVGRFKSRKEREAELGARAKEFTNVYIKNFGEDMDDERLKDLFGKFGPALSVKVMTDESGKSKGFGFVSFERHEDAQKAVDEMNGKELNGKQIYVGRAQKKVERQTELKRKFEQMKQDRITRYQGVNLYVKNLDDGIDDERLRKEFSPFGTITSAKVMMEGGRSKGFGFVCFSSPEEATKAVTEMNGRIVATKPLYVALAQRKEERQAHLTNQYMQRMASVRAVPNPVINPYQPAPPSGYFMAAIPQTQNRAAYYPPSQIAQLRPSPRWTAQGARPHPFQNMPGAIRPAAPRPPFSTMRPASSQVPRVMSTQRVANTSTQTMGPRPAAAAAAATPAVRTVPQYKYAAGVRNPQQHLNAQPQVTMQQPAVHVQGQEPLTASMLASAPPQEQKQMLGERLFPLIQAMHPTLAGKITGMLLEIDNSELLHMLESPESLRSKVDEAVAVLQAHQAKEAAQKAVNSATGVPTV

With CC(=O)O[C@@]12CO[C@@H]1C[C@H](O)[C@@]1(C)C(=O)[C@H](O)C3=C(C)[C@@H](OC(=O)[C@H](O)[C@@H](NC(=O)c4ccccc4)c4ccccc4)C[C@@](O)([C@@H](OC(=O)c4ccccc4)C12)C3(C)C (stereo partly drawn) the EC50 [1] was 9.95 µM (active), the EC50 [2] was 1.21 µM (active) and the EC50 [3] was 1.78 µM (active). For the same compound, the EC50 [4] was > 120 µM (not active), the EC50 [5] was < 0.1 µM (active) and the EC50 [6] was 0.132 µM (active). The EC50 [7] was 6.71 µM (active), the EC50 [8] was 1.16 µM (active) and the IC50 [9] was > 80 µM (inactive).

With CCCCN(C)C(=O)CCCCn1c(=O)[nH]c2cc(OCC)c(OCC)cc2c1=O the EC50 [10] was > 10 µM (not active).

In the case of O=C(CSc1ccc(-c2ccco2)nn1)NCCc1ccccc1, the IC50 [11] is reported as 95.2 µM (active) and the IC50 [12] is reported as > 100 µM (inactive).

With CC1Cc2ccccc2N1C(=O)COc1nc2ccccc2nc1N1CCOCC1 (stereo not drawn) the EC50 [13] was > 100 µM (not active).

With CCN(CC)c1nc2cc(OC)ccc2cc1C#N the EC50 [10] was > 10 µM (not active).

For O=C(O)c1cc(-c2ccc(/C=C3\NC(=O)N(c4ccc(Cl)cc4)C3=O)o2)ccc1Cl, the EC50 [14] was 39.7 µM (active), the AC50 [15] was 19.5 µM (active) and the IC50 [16] was 23.2 µM (active).

For COC(=O)c1ccc2c(=O)n(CCCCCC(=O)N3CCN(c4ccccc4)CC3)c(=O)[nH]c2c1, the EC50 [17] was 17.6 µM (active).
